Laboratory results: ChEMBL document CHEMBL1152006, “Pharmacological profile and chemical synthesis of SR 48968, a non-peptide antagonist of the neurokinin A (NK2) receptor” (Bioorg Med Chem Lett, 1993)

Legend:
Substance-K receptor [1] = target: T1, Substance-K receptor (Rattus norvegicus, UniProt P16610); assay: Inhibition of [125I]NKA binding to neurokinin NK2 receptor from rat duodenum membranes; format: cell membranes, Membrane
T1 sequence (P16610 whole entry): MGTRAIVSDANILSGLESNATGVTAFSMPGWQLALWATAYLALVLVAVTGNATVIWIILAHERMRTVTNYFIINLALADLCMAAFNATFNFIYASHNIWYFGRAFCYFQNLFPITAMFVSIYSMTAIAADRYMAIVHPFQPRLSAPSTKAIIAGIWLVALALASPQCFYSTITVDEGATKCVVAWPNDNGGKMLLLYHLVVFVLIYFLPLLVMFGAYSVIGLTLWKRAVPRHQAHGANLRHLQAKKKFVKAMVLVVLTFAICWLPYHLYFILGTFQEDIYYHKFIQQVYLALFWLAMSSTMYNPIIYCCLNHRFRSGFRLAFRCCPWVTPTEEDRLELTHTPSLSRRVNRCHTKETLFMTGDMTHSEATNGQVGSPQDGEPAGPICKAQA

Cavia porcellus [2] = assay: The compound was evaluated for the inhibition of bronchoconstriction in guinea pig at intravenous dose of 0.2 mg/Kg; format: functional; conditions: Lung
Oryctolagus cuniculus = species on record: Oryctolagus cuniculus; assay: The compound was evaluated for the inhibition of [Nle10]-NKA(4-10)-induced contraction of the rabbit pulmonary artery; format: functional; conditions: read-out: pA2 (converted)
Cavia porcellus [3] = assay: The compound was evaluated for the inhibition of bronchoconstriction in guinea pig at intraduodenal dose of 0.5 mg/Kg; format: functional; conditions: Lung
Substance-K receptor [4] = target: T1, Substance-K receptor; assay: The compound was evaluated for the inhibition of [125I]NKA binding to Tachykinin receptor 2 from rat duodenum membranes; format: cell membranes, Membrane
Cavia porcellus [5] = assay: The compound was evaluated for its effect on bronchoconstriction induced by [Sar9,Met(O2)11]-SP(5 ug/kg, i.v.) in the guinea pig 15 min after administration; format: functional
Cavia porcellus [6] = assay: The compound was evaluated for its effect on bronchoconstriction induced by histamine(10 ug/kg, i.v.) in the guinea pig 60 min after administration; format: functional
Cavia porcellus [7] = assay: The compound was evaluated for its effect on bronchoconstriction induced by [Sar9,Met(O2)11]-SP(5 ug/kg, i.v.) in the guinea pig 60 min after administration; format: functional
Substance-K receptor [8] = target: T2, Substance-K receptor (Mesocricetus auratus, UniProt P51144); assay: The compound was evaluated for the inhibition of [125I]NKA binding to neurokinin NK2 receptor from hamster urinary bladder membranes
T2 sequence (P51144 whole entry): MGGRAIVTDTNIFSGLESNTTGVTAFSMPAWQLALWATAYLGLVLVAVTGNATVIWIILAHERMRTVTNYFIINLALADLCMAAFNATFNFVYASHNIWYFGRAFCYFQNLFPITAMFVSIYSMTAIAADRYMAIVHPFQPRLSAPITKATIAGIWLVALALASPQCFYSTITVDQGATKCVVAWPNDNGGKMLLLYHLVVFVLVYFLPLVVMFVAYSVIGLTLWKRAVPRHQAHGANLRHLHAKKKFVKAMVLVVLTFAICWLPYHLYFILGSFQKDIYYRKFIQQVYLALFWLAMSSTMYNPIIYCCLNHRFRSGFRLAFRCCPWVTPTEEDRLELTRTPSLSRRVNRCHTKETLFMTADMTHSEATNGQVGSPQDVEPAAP

Cavia porcellus [9] = assay: The compound was evaluated for its effect on bronchoconstriction induced by acetylcholine(60 ug/kg, i.v.) in the guinea pig 60 min after administration; format: functional
Cavia porcellus [10] = assay: Tested in vivo to antagonize the NKA-induced bronchoconstriction in guinea pig by intraduodenal route; format: functional; conditions: read-out: ID50 (the source's name)
Cavia porcellus [11] = assay: Tested in vivo to antagonize the NKA-induced bronchoconstriction in guinea pig intravenously; format: functional; conditions: iv, read-out: ID50 (the source's name)
Cavia porcellus [12] = assay: The compound was evaluated for its effect on bronchoconstriction induced by serotonin(10 ug/kg, i.v.) in the guinea pig 15 min after administration; format: functional
Cavia porcellus [13] = assay: The compound was evaluated for its effect on bronchoconstriction induced by histamine(10 ug/kg, i.v.) in the guinea pig 15 min after administration; format: functional
Cavia porcellus [14] = assay: The compound was evaluated for its effect on bronchoconstriction induced by serotonin(10 ug/kg, i.v.) in the guinea pig 60 min after administration; format: functional
Cavia porcellus [15] = assay: The compound was evaluated for its effect on bronchoconstriction induced by acetylcholine(60 ug/kg, i.v.) in the guinea pig 15 min after administration; format: functional

Structure (SMILES) | Ki (Substance-K receptor [1]) [pM] | inhibition in vivo at 0.2 mg/kg (Cavia porcellus [2]) [%] | Kb (Oryctolagus cuniculus) [pM] | inhibition in vivo at 0.5 mg/kg (Cavia porcellus [3]) [%] | further results
CN(CC(CCN1CCC(O)(c2ccccc2)CC1)c1ccc(Cl)c(Cl)c1)C(=O)c1cccs1 (stereo not drawn) | 1400 | 93 | 67.6 | 73 | 
CN(CC(CCN1CCC(O)(c2ccccc2)CC1)c1ccc(Cl)c(Cl)c1)C(=O)c1cccc2ccccc12 (stereo not drawn) | 1500 | 0 | 2340 |  | 
CC(=O)NCC1(c2ccccc2)CCN(CCC(CN(C)C(=O)c2ccccc2)c2ccc(Cl)c(Cl)c2)CC1 (stereo not drawn) | 23000 |  |  |  | 
CCOC1(c2ccccc2)CCN(CCC(CN(C)C(=O)c2ccccc2)c2ccc(Cl)c(Cl)c2)CC1 (stereo not drawn) | 900 | 40 | 170 |  | 
CC(=O)OC1(c2ccccc2)CCN(CCC(CN(C)C(=O)c2ccccc2)c2ccc(Cl)c(Cl)c2)CC1 (stereo not drawn) | 300 | 98 |  | 36 | 
CCN(CC(CCN1CCC(OC(C)=O)(c2ccccc2)CC1)c1ccc(Cl)c(Cl)c1)C(=O)c1cccs1 (stereo not drawn) | 300 | 97 | 447 | 34 | 
CC(=O)NC1(c2ccccc2)CCN(CCC(CNC(=O)c2ccccc2)c2ccc(Cl)c(Cl)c2)CC1 (stereo not drawn) | > 100000 |  |  |  | 
CN(CC(CCN1CCC(c2ccccc2)CC1)c1ccc(Cl)c(Cl)c1)C(=O)c1ccccc1 (stereo not drawn) | > 100000 |  |  |  | 
CN(CC(CCN1CCC(O)(c2ccccc2)CC1)c1ccc(Cl)c(Cl)c1)C(=O)c1ccccc1 (stereo not drawn) | 1000 | 93 | 182 |  | 
CC(=O)NC1(c2ccccc2)CCN(CC[C@H](CN(C)C(=O)c2ccccc2)c2ccc(Cl)c(Cl)c2)CC1 [SAREDUTANT] |  |  |  |  | Ki (Substance-K receptor [4]): 945000 pM
CC(=O)NC1(c2ccccc2)CCN(CCC(CN(C)C(=O)c2ccccc2)c2ccc(Cl)c(Cl)c2)CC1 (single isomer, unassigned) [SAREDUTANT] | 500 | 100 | 33.1 | 100 | Volume of air (Cavia porcellus [5]): 4.4 mL; Volume of air (Cavia porcellus [6]): 3.9 mL; Volume of air (Cavia porcellus [7]): 4.2 mL; Ki (Substance-K receptor [8]): 1200 pM; Volume of air (Cavia porcellus [9]): 3.2 mL; ED50 (Cavia porcellus [10]): 0.35 mg/kg; ED50 (Cavia porcellus [11]): 0.037 mg/kg; Volume of air (Cavia porcellus [12]): 4.5 mL; Volume of air (Cavia porcellus [13]): 3.2 mL; Volume of air (Cavia porcellus [14]): 4.7 mL; Volume of air (Cavia porcellus [15]): 2.8 mL
CN(CC(CCN1CCC(CO)(c2ccccc2)CC1)c1ccc(Cl)c(Cl)c1)C(=O)c1ccccc1 (stereo not drawn) | 50000 |  |  |  | 
CN(CC(CCN1CCC(O)(c2ccccc2)CC1)c1ccc(Cl)c(Cl)c1)C(=O)c1ccsc1 (stereo not drawn) | 1000 | 77 | 229 |  | 
